“And” between values parts separate entries of the source, which are not always exact repeats. Equal entries are not always repeated. Where two headings read alike, the source gives them in different places.
How the values were obtained:
Pharmacokinetic study = assay type: in vivo, SD rats
Description: W2014-S was given to SD rats (male, 230-260g, n = 6) by gavage and intravenous administration. The rats were fasted for 12 h before administration and remained fasting for 2 h. For oral gavage, W2014-S was dissolved in DMSO/0.5% HPMC (5/95, v/v/), and W2014-S was dissolved in DMSO/EtOH/PEG300/0.9% NaCl (5/5/40/50, v/v/v/v) for intravenous administration. The pharmacokinetic (PK) profiles were next evaluated in SD rats.

STAT3 = assay: STAT3-dependent dual-luciferase reporter assay in A549 cells; assay type: cell-based, human; details: A549, 0, 0.3, 1 μM, 24 h
Description: The STAT3-dependent luciferase reporter, pGL3-STAT3, contained seven copies of the STAT3-specific binding sequence ([…]) in the C-reactive protein gene promoter, and drove firefly luciferase expression. The new construct was confirmed by sequencing. For luciferase studies, 293T cells or A549 cells in 96-well plates were transiently co-transfected with the appropriate plasmids (10 ng TKRL as internal control vector for normalizing and 50 ng of pGL3-STAT3) using Lipofectamine 2000 (11668500, Invitrogen, Carlsbad, CA, USA) which was following the manufacturer's protocol. After 24 h, HEK-293T cells were treated with 0-1 μM W2014-S for 24 h, and stimulated with IL-6 (100 ng/mL, PeproTech) for 1 h or EGF (50 ng/mL, PeproTech) for 30 min. Subsequently, cytosolic extracts were prepared for dual-luciferase reporter assay.

[1] = rat, i.v. 3 mg/kg, individual animals 4-6, 3 mg/kg
[2] = rat, p.o. 10 mg/kg, individual animals 1-3, 10 mg/kg

## C[C@H](Oc1ccc(-c2nc3nc(C4=CCN(C(=O)OC(C)(C)C)CC4)ccc3[nH]2)cc1)c1ccccc1 [W2014-S]
Pharmacokinetic study; male, SD, rat, plasma, po, 10 mg/kg, p.o. 10 mg/kg, individual animals 1-3
  half-life: 1.21 h
Pharmacokinetic study; male, SD, rat, plasma, po, 10 mg/kg, rat, p.o. 10 mg/kg, individual animals 1-3, read-out: AUCINF_obs
  AUC(0-inf): 57.9 ng·h/mL
Pharmacokinetic study; male, SD, rat, plasma, po, 10 mg/kg, rat, p.o. 10 mg/kg, individual animals 1-3, read-out: AUClast
  AUC(0-t): 54.6 ng·h/mL
Pharmacokinetic study; male, Sprague-Dawley (SD), rat, plasma, iv, 3 mg/kg, SD rats, 3 mg/kg iv, mean
  half-life: 13.6 h
Pharmacokinetic study; male, Sprague-Dawley (SD), rat, plasma, iv, 3 mg/kg, SD rats, 3 mg/kg iv, mean, read-out: AUC0-inf
  AUC(0-inf): 244 ng·h/mL
Pharmacokinetic study; male, Sprague-Dawley (SD), rat, plasma, iv, 3 mg/kg, SD rats, 3 mg/kg iv, mean, read-out: AUC0-last
  AUC(0-t): 222 ng·h/mL
Pharmacokinetic study; male, Sprague-Dawley (SD), rat, plasma, iv, 3 mg/kg, SD rats, 3 mg/kg iv, mean, read-out: CL
  clearance: 206 mL/min/kg
Pharmacokinetic study; male, Sprague-Dawley (SD), rat, plasma, po, 10 mg/kg, SD rats, 10 mg/kg po, mean
  half-life: 1.46 h
Pharmacokinetic study; male, Sprague-Dawley (SD), rat, plasma, po, 10 mg/kg, SD rats, 10 mg/kg po, mean, read-out: AUC0-inf
  AUC(0-inf): 56.1 ng·h/mL
Pharmacokinetic study; male, Sprague-Dawley (SD), rat, plasma, po, 10 mg/kg, SD rats, 10 mg/kg po, mean, read-out: AUC0-last
  AUC(0-t): 54.6 ng·h/mL
Pharmacokinetic study; male, Sprague-Dawley (SD), rat, plasma, po, 10 mg/kg, SD rats, 10 mg/kg po, mean, read-out: Cmax
  Cmax: 23.8 ng/mL
Pharmacokinetic study; male, Sprague-Dawley (SD), rat, plasma, po, 10 mg/kg, SD rats, 10 mg/kg po, mean, read-out: Tmax
  Tmax: 1.67 h
Pharmacokinetic study; male, Sprague-Dawley (SD), rat, plasma, po, 10 mg/kg, rat, p.o. 10 mg/kg, mean, read-out: MRTINF_obs
  MRT inf: 2.61 h
Pharmacokinetic study; male, Sprague-Dawley (SD), rat, plasma, SD rats, 3 mg/kg iv, mean, read-out: Vss
  Vd: 77.5 L/kg
Pharmacokinetic study; male, Sprague-Dawley (SD), rat, plasma, SD rats, 10 mg/kg po vs 3 mg/kg iv
  bioavailability: 7.39%
Pharmacokinetic study; p.o. 10 mg/kg, 0.25 h, 10 mg/kg
  Concentration in rat plasma, individual animals 1-3: 29.9 ng/mL and 7.10 ng/mL and 21.9 ng/mL
Pharmacokinetic study; p.o. 10 mg/kg, 0.50 h, 10 mg/kg
  Concentration in rat plasma, individual animals 1-3: 10.0 ng/mL and 27.4 ng/mL and 30.0 ng/mL
Pharmacokinetic study; p.o. 10 mg/kg, 1.00 h, 10 mg/kg
  Concentration in rat plasma, individual animals 1-3: 8.00 ng/mL and 18.7 ng/mL and 21.7 ng/mL
Pharmacokinetic study; p.o. 10 mg/kg, 2.00 h, 10 mg/kg
  Concentration in rat plasma, individual animals 1-3: 9.40 ng/mL and 6.60 ng/mL
Pharmacokinetic study; p.o. 10 mg/kg, 4.00 h, 10 mg/kg
  Concentration in rat plasma, individual animals 1-3: 13.9 ng/mL and 4.80 ng/mL (2×)
Pharmacokinetic study; p.o. 10 mg/kg, 8.00 h, 10 mg/kg
  Concentration in rat plasma, individual animals 1-3: 1.20 ng/mL and 0.400 ng/mL and 0.300 ng/mL
Pharmacokinetic study; p.o. 10 mg/kg, 24.0 h, BLQ: Below LLOQ (LLOQ = 0.3 ng/mL)
  Concentration in rat plasma, individual animals 1-3: BLQ
Pharmacokinetic study; [1]
  AUCINF_obs: 247 ng·h/mL and 255 ng·h/mL
  AUClast: 220 ng·h/mL and 236 ng·h/mL
  CL_obs: 202 mL/min/kg and 196 mL/min/kg
  MRTINF_obs: 7.48 h and 5.59 h
  T1/2: 14.2 h and 11.2 h
  Vss_obs: 76.143 L/kg and 90.763 L/kg and 65.72 L/kg
Pharmacokinetic study; rat, i.v. 3 mg/kg, mean
  Vss_obs: 77.542 L/kg
Pharmacokinetic study; [2]
  AUCINF_obs: 55.3 ng·h/mL and 55.0 ng·h/mL
  AUClast: 54.5 ng·h/mL
  Cmax: 13.9 ng/mL and 27.4 ng/mL and 30.0 ng/mL
  MRTINF_obs: 3.89 h and 2.08 h and 1.87 h
  T1/2: 1.88 h and 1.29 h
  Tmax: 4.00 h and 0.50 h (2×)
STAT3
  STAT3 transcriptional activity (luciferase reporter): inhibited
